What all share (format): physicochemical
Data set [1] can be described thus: solubility in water / aqueous environments.
Data set [2] is described as follows: hygroscopicity of the crystalline non-solvate form in humid or dry air.
A short description of data set [3]: solid-form stability on standing (conversion to other forms). To be noted: crystalline non-solvate form.

The structures appear in SMILES notation. “Also recorded” adds a separate entry of the source.

On to `COc1cc(F)c(C(C)C)cc1-c1ccc(C(F)(F)F)cc1CN1C(=O)O[C@H](c2cc(C(F)(F)F)cc(C(F)(F)F)c2)[C@@H]1C` [compound 12, (4S,5R)-5-[3,5-bis(trifluoromethyl)phenyl]-3-{[4′-fluoro-5′-isopropyl-2′-methoxy-4-(trifluoromethyl)biphenyl-2-yl]methyl}-4-methyl-1,3-oxazolidin-2-one], for which the solubility in water entry in data set [1] is “very poorly soluble in water”. In addition, the hydrate formation result in data set [2] is recorded as “does not convert to a hydrate in humid or dry air”. Further, in data set [2], the hygroscopicity entry is recorded as “non-hygroscopic”. For the same compound, the “conversion of crystal form on standing” value in data set [3] (elevated temperatures) is “converts more rapidly to the amorphous form at elevated temperatures”; in data set [3] (room temperature) it was “slowly converts to the amorphous form on standing for long periods of time; also recorded: stable at room temperature for moderate periods of time with respect to changing to the amorphous form”.
